Source: patent US10183971B2, “SAA-domain-specific antibodies and peptide antagonists and use thereof to treat inflammatory diseases” (The Feinstein Institute For Medical Research, priority 2013, dated 2019)
“Also recorded” adds a separate entry of the source.

Assays:
SAA = test: SAA-induced HMGB1 release in macrophages (Western blotting); format: cell-based; conditions: in vitro
Experimental: FIG. 5A-5C. Epitope mapping of SAA-specific antibodies using a peptide library. A, Sequence of synthetic SAA peptides (SEQ ID NO:19). […] Macrophages were stimulated with SAA in the absence or presence of different (R1, R2, R3) IgGs, and HMGB1 release was assayed by Western blotting. C, Epitope mapping by dot blot. Note that all rabbit IgGs capable of protecting against lethal endotoxemia cross-reacted with P8 peptide.
Epitope mapping of SAA-neutralizing antibodies. To test the possibility that antibodies or peptides antagonists targeting different SAA domains may divergently affect the outcomes of LSI, SAA-specific antibodies were generated, and the epitopes of these polyclonal IgGs determined using a peptide library (18-mer offset by 6) spanning the entire SAA protein (FIG. 5A). […] Following repetitive immunizations, the titers of anti-SAA IgGs were dramatically elevated in most rabbits (e.g., R1 and R3).

HMGB1 release = HMGB1 release in vitro by inflammatory mediators (data not shown); format: cell-based

Substance | effect of pre-incubation with peptide on anti-SAA-IgG-mediated inhibition of SAA-induced HMGB1 release (SAA) | inhibition of SAA-induced HMGB1 release (SAA) | induction of HMGB1 release in vitro (HMGB1 release)
REANYIGSDKYFHARGNY (listed as Homo sapiens) [Clone P8, SAA peptide (18-mer) corresponding to residues 25-42] | impaired | dose-dependently inhibited | 
EGF: cytoprotective peptide (NSDSECPLSHDGYCLHDGVCMYIEALDKYACNCVVGYIGERCQYRDLKWWELR; Epidermal growth factor; UniProt P01133 971-1023, looked up) |  |  | unable to induce HMGB1 release
IL-6: inflammatory mediator, sepsis surrogate marker |  |  | unable to induce HMGB1 release
RSFFSFLGEAFDGARDMW (listed as Homo sapiens) [Clone P4, SAA peptide corresponding to residues 1-18] |  | dose-dependently inhibited; also recorded: inhibited SAA-induced HMGB1 release | 
IL-8: inflammatory mediator, sepsis surrogate marker |  |  | unable to induce HMGB1 release
